Data taken from patent publication US20250250230A1, “HETEROCYCLIC COMPOUND” (TAKEDA PHARMACEUTICAL COMPANY LIMITED, priority 2022, published 2025).

Each molecule was assayed against T1, human orexin type 2 receptor (Homo sapiens, UniProt O43614) (assay: Measurement of orexin type 2 receptor agonist activity (calcium fluorescence, Fluo-4 AM, FDSS)). Conditions: test compound 3 μM; CHO cells expressing human OX2 receptor; DMSO = 0%, orexin A (human) = 100%.
T1 construct: expressed in transfected cells
T1 sequence (O43614 1-444): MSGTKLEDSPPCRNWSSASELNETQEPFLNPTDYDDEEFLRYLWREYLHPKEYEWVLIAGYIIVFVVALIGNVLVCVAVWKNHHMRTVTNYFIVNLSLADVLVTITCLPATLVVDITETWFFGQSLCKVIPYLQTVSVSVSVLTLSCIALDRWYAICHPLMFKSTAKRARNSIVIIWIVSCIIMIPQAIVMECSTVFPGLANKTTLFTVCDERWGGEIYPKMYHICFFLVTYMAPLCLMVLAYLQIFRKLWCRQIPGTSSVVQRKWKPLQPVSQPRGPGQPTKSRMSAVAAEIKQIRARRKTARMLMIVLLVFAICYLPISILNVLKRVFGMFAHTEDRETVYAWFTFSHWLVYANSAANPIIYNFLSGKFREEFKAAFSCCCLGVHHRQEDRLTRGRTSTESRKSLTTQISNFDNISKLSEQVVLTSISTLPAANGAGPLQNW
Assay type: cell-based
Method in brief: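 Agonist response scaled between vehicle (0%) and human orexin A at 10 nM final (100%), from 2-min kinetic Fluo-4 fluorescence reads. Stable hOX2R CHO-K1 clone, dye-loaded in HBSS/20 mM HEPES/0.1% BSA with 1.25 mM probenecid before compound addition.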

Structure (SMILES) | OX2R agonist activity (3 μM, %) [%]
CS(=O)(=O)NC1CCN(C(=O)C2CC2c2ccc(F)cc2-c2ccccc2F)C1 (racemic) [Example 208, a mixture of rac-N-{(3R)-1-[(1R,2R)-2-(2′,5-difluoro[1,1′-biphenyl]-2-yl)cyclopropane-1-carbonyl]pyrrolidin-3-yl}methanesulfonamide and rac-N-{(3S)-1-[(1R,2R)-2-(2′,5-difluoro[1,1′-biphenyl]-2-yl)cyclopropane-1-carbonyl]pyrrolidin-3-yl}methanesulfonamide] | 78
CC1CCN(C(=O)C2CC2c2ccccc2-c2c(F)cccc2F)CC1NS(C)(=O)=O (racemic) [Example 185, a mixture of rac-N-{(3R,4R)-1-[(1R,2R)-2-(2′,6′-difluoro[1,1′-biphenyl]-2-yl)cyclopropane-1-carbonyl]-4-methylpiperidin-3-yl}methanesulfonamide and rac-N-{(3S,4S)-1-[(1R,2R)-2-(2′,6′-difluoro[1,1′-biphenyl]-2-yl)cyclopropane-1-carbonyl]-4-methylpiperidin-3-yl}methanesulfonamide] | 57
CS(=O)(=O)NCC1CCN(C(=O)C2CC2c2ccccc2-c2c(F)cccc2F)C1 (racemic) [Example 40, a mixture of rac-N-({(3R)-1-[(1R,2R)-2-(2′,6′-difluoro[1,1′-biphenyl]-2-yl)cyclopropane-1-carbonyl]pyrrolidin-3-yl}methyl)methanesulfonamide and rac-N-({(3S)-1-[(1R,2R)-2-(2′,6′-difluoro[1,1′-biphenyl]-2-yl)cyclopropane-1-carbonyl]pyrrolidin-3-yl}methyl)methanesulfonamide] | 77
O=C(C1CC1c1ccccc1-c1c(F)cccc1F)N1CCC(NS(=O)(=O)C2CC2)C1 (racemic) [Example 37, a mixture of rac-N-{(3R)-1-[(1R,2R)-2-(2′,6′-difluoro[1,1′-biphenyl]-2-yl)cyclopropane-1-carbonyl]pyrrolidin-3-yl}cyclopropanesulfonamide and rac-N-{(3S)-1-[(1R,2R)-2-(2′,6′-difluoro[1,1′-biphenyl]-2-yl)cyclopropane-1-carbonyl]pyrrolidin-3-yl}cyclopropanesulfonamide] | 101
Cc1cccc(C2CC2C(=O)N2CCCC(NS(C)(=O)=O)C2)c1-c1ccccc1 (racemic) [Example 89, a mixture of rac-N-{(3R)-1-[(1R,2R)-2-(6-methyl[1,1′-biphenyl]-2-yl)cyclopropane-1-carbonyl]piperidin-3-yl}methanesulfonamide and rac-N-{(3S)-1-[(1R,2R)-2-(6-methyl[1,1′-biphenyl]-2-yl)cyclopropane-1-carbonyl]piperidin-3-yl}methanesulfonamide] | 64
CS(=O)(=O)NC1CCC2CN(C(=O)C3CC3c3ccccc3-c3c(F)cccc3F)CC21 (stereo not drawn) [Example 238, N-2-[(2-(2′,6′-difluoro[1,1′-biphenyl]-2-yl)cyclopropane-1-carbonyl]octahydrocyclopenta[c]pyrrol-4-yl}methanesulfonamide Optical Isomer] | 98
O=C(C1CC1c1ccccc1-c1c(F)cccc1F)N1CCCC(NS(=O)(=O)C2CC2)C1 (racemic) [Example 123, a mixture of rac-N-{(3R)-1-[(1R,2R)-2-(2′,6′-difluoro[1,1′-biphenyl]-2-yl)cyclopropane-1-carbonyl]piperidin-3-yl}cyclopropanesulfonamide and rac-N-{(3S)-1-[(1R,2R)-2-(2′,6′-difluoro[1,1′-biphenyl]-2-yl)cyclopropane-1-carbonyl]piperidin-3-yl}cyclopropanesulfonamide] | 100
CS(=O)(=O)NC1CCCN(C(=O)C2CC2c2ccccc2-c2cccc(F)c2F)C1 (racemic) [Example 67, a mixture of rac-N-{(3R)-1-[(1R,2R)-2-(2′,3′-difluoro[1,1′-biphenyl]-2-yl)cyclopropane-1-carbonyl]piperidin-3-yl}methanesulfonamide and rac-N-{(3S)-1-[(1R,2R)-2-(2′,3′-difluoro[1,1′-biphenyl]-2-yl)cyclopropane-1-carbonyl]piperidin-3-yl}methanesulfonamide] | 89
CS(=O)(=O)NC1CN(C(=O)C2CC2c2ccccc2-c2c(F)cccc2F)CCC1(F)F (racemic) [Example 129, a mixture of rac-N-{(3R)-1-[(1R,2R)-2-(2′,6′-difluoro[1,1′-biphenyl]-2-yl)cyclopropane-1-carbonyl]-4,4-difluoropiperidin-3-yl}methanesulfonamide and rac-N-{(3S)-1-[(1R,2R)-2-(2′,6′-difluoro[1,1′-biphenyl]-2-yl)cyclopropane-1-carbonyl]-4,4-difluoropiperidin-3-yl}methanesulfonamide] | 101
CNS(=O)(=O)NC[C@@H]1CN(C(=O)[C@@H]2C[C@H]2c2ccccc2-c2c(F)cccc2F)CCO1 [Example 337, N-({(2S)-4-[(1R,2R)-2-(2′,6′-difluoro[1,1′-biphenyl]-2-yl)cyclopropane-1-carbonyl]morpholin-2-yl}methyl)-N′-methylsulfuric diamide] | 100
CNS(=O)(=O)NC[C@@H]1CCN1C(=O)[C@@H]1C[C@H]1c1ccccc1-c1c(F)cccc1F [Example 339, N-({(2S)-1-[(1R,2R)-2-(2′,6′-difluoro[1,1′-biphenyl]-2-yl)cyclopropane-1-carbonyl]azetidin-2-yl}methyl)-N′-methylsulfuric diamide] | 103

Further lines, results first:

OX2R agonist activity (3 μM, %) [%] | Structure (SMILES)
96 | CS(=O)(=O)NC1CN(C(=O)[C@@H]2C[C@@]2(F)c2ccccc2-c2c(F)cccc2F)CC1(F)F (stereo partly drawn) [Example 331, N-{(3R)-1-[(1S,2S)-2-(2′,6′-difluoro[1,1′-biphenyl]-2-yl)-2-fluorocyclopropane-1-carbonyl]-4,4-difluoropyrrolidin-3-yl}methanesulfonamide, or N-{(3S)-1-[(1S,2S)-2-(2′,6′-difluoro[1,1′-biphenyl]-2-yl)-2-fluorocyclopropane-1-carbonyl]-4,4-difluoropyrrolidin-3-yl}methanesulfonamide]
97 | CS(=O)(=O)NC[C@@H]1[C@H](CF)CN1C(=O)[C@@H]1C[C@@]1(F)c1ccccc1-c1c(F)cccc1F [Example 398, N-{[(2S,3R)-1-[(1S,2S)-2-(2′,6′-difluoro[1,1′-biphenyl]-2-yl)-2-fluorocyclopropane-1-carbonyl]-3-(fluoromethyl)azetidin-2-yl]methyl}methanesulfonamide]
99 | CCS(=O)(=O)NC[C@@H]1[C@H](F)CN1C(=O)C1(COC)CC1c1ccc(F)cc1-c1c(F)cccc1F (stereo partly drawn) [Example 437, N-({(2R,3R)-3-fluoro-1-[(1R,2S)-1-(methoxymethyl)-2-(2′,5,6′-trifluoro[1,1′-biphenyl]-2-yl)cyclopropane-1-carbonyl]azetidin-2-yl}methyl)ethanesulfonamide, or N-({(2R,3R)-3-fluoro-1-[(1S,2R)-1-(methoxymethyl)-2-(2′,5,6′-trifluoro[1,1′-biphenyl]-2-yl)cyclopropane-1-carbonyl]azetidin-2-yl}methyl)ethanesulfonamide]
89 | CS(=O)(=O)NCC1CCCN(C(=O)C2CC2c2ccccc2-c2c(F)cccc2F)C1 (racemic) [Example 128, a mixture of rac-N-({(3R)-1-[(1R,2R)-2-(2′,6′-difluoro[1,1′-biphenyl]-2-yl)cyclopropane-1-carbonyl]piperidin-3-yl}methyl)methanesulfonamide and rac-N-({(3S)-1-[(1R,2R)-2-(2′,6′-difluoro[1,1′-biphenyl]-2-yl)cyclopropane-1-carbonyl]piperidin-3-yl}methyl)methanesulfonamide]
100 | O=C([C@@H]1C[C@@]1(F)c1ccc(F)cc1-c1c(F)cccc1F)N1C[C@@H](F)[C@H]1CNS(=O)(=O)N1CCC1 [Example 446, N-({(2R,3R)-3-fluoro-1-[(1S,2S)-2-fluoro-2-(2′,5,6′-trifluoro[1,1′-biphenyl]-2-yl)cyclopropane-1-carbonyl]azetidin-2-yl}methyl)azetidine-1-sulfonamide]
99 | CS(=O)(=O)NC([C@@H]1CCN1C(=O)[C@@H]1C[C@@]1(F)c1ccccc1-c1c(F)cccc1F)C1(O)CC1 (stereo partly drawn) [Example 418, N-[(R)-{(2S)-1-[(1S,2S)-2-(2′,6′-difluoro[1,1′-biphenyl]-2-yl)-2-fluorocyclopropane-1-carbonyl]azetidin-2-yl}(1-hydroxycyclopropyl)methyl]methane-sulfonamide, or N-[(S)-{(2S)-1-[(1S,2S)-2-(2′,6′-difluoro[1,1′-biphenyl]-2-yl)-2-fluorocyclopropane-1-carbonyl]azetidin-2-yl}(1-hydroxycyclopropyl)methyl]methanesulfonamide]
95 | CS(=O)(=O)N[C@H]1C[C@H](O)CN(C(=O)[C@@H]2C[C@@]2(F)c2ccccc2-c2c(F)cccc2F)C1 [Example 332, N-{(3S,5S)-1-[(1S,2S)-2-(2′,6′-difluoro[1,1′-biphenyl]-2-yl)-2-fluorocyclopropane-1-carbonyl]-5-hydroxypiperidin-3-yl}methanesulfonamide]
